{"source": "patent US8802597B2", "about": "“Herbicidal pyrimidines” (E I du Pont de Nemours and Company, priority 2003, dated 2014)", "assay_type_in_all_cases": "in vivo", "key": {"[1]": {"system": "ducksalad (Heteranthera limosa)", "experiment": "Test E flooded paddy water application", "details": "Flood, 21 days, scale 0 to 100 (0 no effect, 100 complete control)", "how_it_was_run": "(§1)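 Response scored visually on a 0–100 scale (100 = complete control) at 21 days against untreated pots. Treatment was into paddy water 3 cm deep over silt loam, with plants at the 2.0–2.5-leaf stage, grown under 16-h light at 29.5/26.7 °C day/night.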"}, "[2]": {"system": "early watergrass (Echinochloa oryzoides)", "experiment": "Test E flooded paddy water application", "details": "Flood, 21 days, scale 0 to 100 (0 no effect, 100 complete control)", "how_it_was_run": "as §1"}, "[3]": {"system": "junglerice (Echinochloa colona)", "experiment": "Test E flooded paddy water application", "details": "Flood, 21 days, scale 0 to 100 (0 no effect, 100 complete control)", "how_it_was_run": "as §1"}, "[4]": {"system": "smallflower umbrella sedge (Cyperus difformis)", "experiment": "Test E flooded paddy water application", "details": "Flood, 21 days, scale 0 to 100 (0 no effect, 100 complete control)", "how_it_was_run": "as §1"}, "[5]": {"system": "water seeded rice seedlings (Oryza sativa cv. ‘Japonica-M202’)", "experiment": "Test E flooded paddy water application", "details": "Flood, 21 days, scale 0 to 100 (0 no effect, 100 complete control)", "how_it_was_run": "as §1"}, "corn (Zea mays)": {"system": "corn (Zea mays)", "experiment": "Test C pre/postemergence", "details": "for Plant response rating, Corn: Preemergence", "how_it_was_run": "(§2)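 We sprayed seeded pots preemergence and 2–18 cm seedlings postemergence with test chemicals in a non-phytotoxic solvent mixture including surfactant. Greenhouse plants were visually compared with untreated controls at 12 to 14 days and scored 0 (no effect) to 100 (complete control).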"}, "[6]": {"system": "morningglory (Ipomoea coccinea)", "experiment": "Test C pre/postemergence", "details": "for Plant response rating, Morningglory: Preemergence", "how_it_was_run": "as §2"}, "[7]": {"system": "woolly cupgrass (Eriochloa villosa)", "experiment": "Test C pre/postemergence", "details": "for Plant response rating, Cupgrass, Woolly: Preemergence", "how_it_was_run": "as §2"}, "[8]": {"details": "31 g ai/ha, scale 0 to 100, 0 no effect, 100 complete control"}, "[9]": {"details": "62 g ai/ha, scale 0 to 100, 0 no effect, 100 complete control"}, "[10]": {"details": "16 g ai/ha, scale 0 to 100, 0 no effect, 100 complete control"}, "[11]": {"details": "Postemergence, 125 g ai/ha, scale 0 to 100 (0 no effect, 100 complete control)"}}, "data": [{"compound": "COC(=O)c1nc(-c2ccc(C(F)(F)F)cc2)nc(N)c1Cl", "note": "[Compound 44]", "values": [{"measurement": "Ducksalad plant response rating", "setting": "[1]; 32 g ai/ha", "result": 100}, {"measurement": "Ducksalad plant response rating", "setting": "[1]; 64 g ai/ha", "result": 100}, {"measurement": "Ducksalad plant response rating", "setting": "[1]; 125 g ai/ha", "result": 100}, {"measurement": "Ducksalad plant response rating", "setting": "[1]; 250 g ai/ha", "result": 100}, {"measurement": "Ducksalad plant response rating", "setting": "[1]; 500 g ai/ha", "result": 100}, {"measurement": "Watergrass, Early plant response rating", "setting": "[2]; 32 g ai/ha", "result": 0}, {"measurement": "Watergrass, Early plant response rating", "setting": "[2]; 64 g ai/ha", "result": 0}, {"measurement": "Watergrass, Early plant response rating", "setting": "[2]; 125 g ai/ha", "result": 0}, {"measurement": "Watergrass, Early plant response rating", "setting": "[2]; 250 g ai/ha", "result": 0}, {"measurement": "Watergrass, Early plant response rating", "setting": "[2]; 500 g ai/ha", "result": 0}, {"measurement": "Junglerice plant response rating", "setting": "[3]; 32 g ai/ha", "result": 0}, {"measurement": "Junglerice plant response rating", "setting": "[3]; 64 g ai/ha", "result": 0}, {"measurement": "Junglerice plant response rating", "setting": "[3]; 125 g ai/ha", "result": 0}, {"measurement": "Junglerice plant response rating", "setting": "[3]; 250 g ai/ha", "result": 20}, {"measurement": "Junglerice plant response rating", "setting": "[3]; 500 g ai/ha", "result": 20}, {"measurement": "Sedge, Umbrella plant response rating", "setting": "[4]; 32 g ai/ha", "result": 20}, {"measurement": "Sedge, Umbrella plant response rating", "setting": "[4]; 64 g ai/ha", "result": 90}, {"measurement": "Sedge, Umbrella plant response rating", "setting": "[4]; 125 g ai/ha", "result": 90}, {"measurement": "Sedge, Umbrella plant response rating", "setting": "[4]; 250 g ai/ha", "result": 100}, {"measurement": "Sedge, Umbrella plant response rating", "setting": "[4]; 500 g ai/ha", "result": 100}, {"measurement": "Rice, Water Seeded plant response rating", "setting": "[5]; 32 g ai/ha", "result": 0}, {"measurement": "Rice, Water Seeded plant response rating", "setting": "[5]; 64 g ai/ha", "result": 0}, {"measurement": "Rice, Water Seeded plant response rating", "setting": "[5]; 125 g ai/ha", "result": 0}, {"measurement": "Rice, Water Seeded plant response rating", "setting": "[5]; 250 g ai/ha", "result": 0}, {"measurement": "Rice, Water Seeded plant response rating", "setting": "[5]; 500 g ai/ha", "result": 20}]}, {"compound": "CCOC(=O)c1nc(-c2ccc3c(c2)OCO3)nc(N)c1Cl", "note": "[Compound 74]", "values": [{"measurement": "Ducksalad plant response rating", "setting": "[1]; 32 g ai/ha", "result": 100}, {"measurement": "Ducksalad plant response rating", "setting": "[1]; 64 g ai/ha", "result": 100}, {"measurement": "Ducksalad plant response rating", "setting": "[1]; 125 g ai/ha", "result": 100}, {"measurement": "Ducksalad plant response rating", "setting": "[1]; 250 g ai/ha", "result": 100}, {"measurement": "Plant response rating, Ducksalad", "setting": "[1]; 16 g ai/ha", "result": 100}, {"measurement": "Watergrass, Early plant response rating", "setting": "[2]; 32 g ai/ha", "result": 0}, {"measurement": "Watergrass, Early plant response rating", "setting": "[2]; 64 g ai/ha", "result": 0}, {"measurement": "Watergrass, Early plant response rating", "setting": "[2]; 125 g ai/ha", "result": 0}, {"measurement": "Watergrass, Early plant response rating", "setting": "[2]; 250 g ai/ha", "result": 0}, {"measurement": "Plant response rating, Watergrass, Early", "setting": "[2]; 16 g ai/ha", "result": 0}, {"measurement": "Junglerice plant response rating", "setting": "[3]; 32 g ai/ha", "result": 0}, {"measurement": "Junglerice plant response rating", "setting": "[3]; 64 g ai/ha", "result": 0}, {"measurement": "Junglerice plant response rating", "setting": "[3]; 125 g ai/ha", "result": 0}, {"measurement": "Junglerice plant response rating", "setting": "[3]; 250 g ai/ha", "result": 65}, {"measurement": "Plant response rating, Junglerice", "setting": "[3]; 16 g ai/ha", "result": 0}, {"measurement": "Sedge, Umbrella plant response rating", "setting": "[4]; 32 g ai/ha", "result": 0}, {"measurement": "Sedge, Umbrella plant response rating", "setting": "[4]; 64 g ai/ha", "result": 80}, {"measurement": "Sedge, Umbrella plant response rating", "setting": "[4]; 125 g ai/ha", "result": 95}, {"measurement": "Sedge, Umbrella plant response rating", "setting": "[4]; 250 g ai/ha", "result": 100}, {"measurement": "Plant response rating, Sedge, Umbrella", "setting": "[4]; 16 g ai/ha", "result": 0}, {"measurement": "Rice, Water Seeded plant response rating", "setting": "[5]; 32 g ai/ha", "result": 0}, {"measurement": "Rice, Water Seeded plant response rating", "setting": "[5]; 64 g ai/ha", "result": 0}, {"measurement": "Rice, Water Seeded plant response rating", "setting": "[5]; 125 g ai/ha", "result": 0}, {"measurement": "Rice, Water Seeded plant response rating", "setting": "[5]; 250 g ai/ha", "result": 0}, {"measurement": "Plant response rating, Rice, Water Seeded", "setting": "[5]; 16 g ai/ha", "result": 0}]}, {"compound": "CCCOC(=O)c1nc(C2CC2)nc(N)c1Cl", "note": "[Compound 75]", "values": [{"measurement": "Plant response rating, Corn", "setting": "corn (Zea mays); [8]", "result": 0}, {"measurement": "Plant response rating, Corn", "setting": "corn (Zea mays); [9]", "result": 30}, {"measurement": "Plant response rating, Corn", "setting": "corn (Zea mays); 125 g ai/ha, scale 0 to 100", "result": 65}, {"measurement": "Plant response rating, Morningglory", "setting": "[6]; [10]", "result": 50}, {"measurement": "Plant response rating, Morningglory", "setting": "[6]; [8]", "result": 90}, {"measurement": "Plant response rating, Morningglory", "setting": "[6]; [9]", "result": 95}, {"measurement": "Plant response rating, Morningglory", "setting": "[6]; 125 g ai/ha, scale 0 to 100", "result": 100}, {"measurement": "Plant response rating, Cupgrass, Woolly", "setting": "[7]; [10]", "result": 0}, {"measurement": "Plant response rating, Cupgrass, Woolly", "setting": "[7]; [8]", "result": 0}, {"measurement": "Plant response rating, Cupgrass, Woolly", "setting": "[7]; [9]", "result": 60}, {"measurement": "Plant response rating, Cupgrass, Woolly", "setting": "[7]; 125 g ai/ha, scale 0 to 100", "result": 60}]}, {"compound": "CCCCOC(=O)c1nc(C2CC2)nc(N)c1Cl", "note": "[Compound 76]", "values": [{"measurement": "Plant response rating (scale of 0 to 100), Corn", "setting": "corn (Zea mays); Postemergence, 16 g ai/ha", "result": 10}, {"measurement": "Plant response rating (scale of 0 to 100), Corn", "setting": "corn (Zea mays); Postemergence, 31 g ai/ha", "result": 35}, {"measurement": "Plant response rating (scale of 0 to 100), Corn", "setting": "corn (Zea mays); Postemergence, 62 g ai/ha", "result": 55}, {"measurement": "Corn plant response rating", "setting": "corn (Zea mays); [11]", "result": 70}, {"measurement": "Plant response rating, Corn", "setting": "corn (Zea mays); [10]", "result": 0}, {"measurement": "Plant response rating, Corn", "setting": "corn (Zea mays); [8]", "result": 0}, {"measurement": "Plant response rating, Corn", "setting": "corn (Zea mays); [9]", "result": 35}, {"measurement": "Plant response rating, Corn", "setting": "corn (Zea mays); 125 g ai/ha, scale 0 to 100", "result": 45}, {"measurement": "Plant response rating (scale of 0 to 100), Morningglory", "setting": "[6]; Postemergence, 16 g ai/ha", "result": 95}, {"measurement": "Plant response rating (scale of 0 to 100), Morningglory", "setting": "[6]; Postemergence, 31 g ai/ha", "result": 95}, {"measurement": "Plant response rating (scale of 0 to 100), Morningglory", "setting": "[6]; Postemergence, 62 g ai/ha", "result": 95}, {"measurement": "Morningglory plant response rating", "setting": "[6]; [11]", "result": 100}, {"measurement": "Plant response rating, Morningglory", "setting": "[6]; [10]", "result": 40}, {"measurement": "Plant response rating, Morningglory", "setting": "[6]; [8]", "result": 60}, {"measurement": "Plant response rating, Morningglory", "setting": "[6]; [9]", "result": 100}, {"measurement": "Plant response rating, Morningglory", "setting": "[6]; 125 g ai/ha, scale 0 to 100", "result": 100}, {"measurement": "Plant response rating (scale of 0 to 100), Cupgrass, Woolly", "setting": "[7]; Postemergence, 16 g ai/ha", "result": 55}, {"measurement": "Plant response rating (scale of 0 to 100), Cupgrass, Woolly", "setting": "[7]; Postemergence, 31 g ai/ha", "result": 60}, {"measurement": "Plant response rating (scale of 0 to 100), Cupgrass, Woolly", "setting": "[7]; Postemergence, 62 g ai/ha", "result": 80}, {"measurement": "Cupgrass, Woolly plant response rating", "setting": "[7]; [11]", "result": 95}, {"measurement": "Plant response rating, Cupgrass, Woolly", "setting": "[7]; [10]", "result": 0}, {"measurement": "Plant response rating, Cupgrass, Woolly", "setting": "[7]; [8]", "result": 0}, {"measurement": "Plant response rating, Cupgrass, Woolly", "setting": "[7]; [9]", "result": 20}, {"measurement": "Plant response rating, Cupgrass, Woolly", "setting": "[7]; 125 g ai/ha, scale 0 to 100", "result": 50}]}]}
